Assays:
[1] = target: farnesyltransferase (FTase); conditions: cited from earlier work
heart failure = conditions: human, in vivo; cited from earlier work
CCR2 mRNA = assay: Inhibition of CCR2 mRNA level in MDSCs; assay type: cell-based; conditions: Mus musculus, 2 h, read-out: Suppression Rate (inhibition of CCR2 mRNA levels)
Method: Under sterile conditions, the tibia was removed, both ends of the bone were cut, and bone marrow was repeatedly flushed into a 15 mL centrifuge tube using a 1 mL syringe filled with culture medium. Centrifuge at 1600 rpm for 5 min to collect bone marrow cells. […] Count cells and adjust density to 1×10^6 cells/mL in complete medium. Seed cells uniformly into 6-well plates at 2 mL per well. […] After incubation, collect cells into centrifuge tubes, centrifuge at 1600 rpm for 5 min, wash once with 1×PBS, and add 500 μL RNA extraction reagent to each tube. After centrifugation to obtain the pellet, add 20 μL DEPC-treated water to each tube to dissolve the pellet. Determine RNA concentration and reverse transcribe to cDNA. Add the cDNA, primers, and […] to a 96-well plate. Centrifuge at 4000 rpm for 5 min, then place in a PCR instrument for detection.

[2] = Safety evaluation, mouse body weight (30 days oral); assay type: in vivo, C57BL/6 mice; set-up: Mouse body weight: unit not given here; conditions: for Mouse body weight: oral gavage once daily
Text: The Normal group received an equal volume of solvent (saline).

In the case of `C=C1C(=O)O[C@@H]2[C@H]3C(C)=CC[C@@]34O[C@@]4(C)CC[C@@H]12` [Arg, Arglabin, reference compound], the “IC50 for inhibiting H-Ras protein farnesylation” value [1] is given as “only at the micromolar level”, the cardiac inflammation (heart failure) is given as “inhibited” and the inhibition at 1 µM (CCR2 mRNA) is given as 22.3%. For the same molecule, the inhibition at 10 µM (CCR2 mRNA) was 69.7%.

For `CN(C)C[C@@H]1C(=O)O[C@H]2[C@H]1CC[C@@]1(C)C[C@]13CC[C@@](C)(O)[C@H]23` [Compound 20], the body weight ([2]; 500, 1000 mg/kg oral, 30 days, P>0.05) was “no significant effect”, the Mouse body weight ([2]; female, 500 mg/kg, day 1) was 100.00 ± 0.00 and the Mouse body weight ([2]; female, 500 mg/kg, day 5) was 100.41 ± 0.43. For the same molecule, the Mouse body weight ([2]; female, 500 mg/kg, day 10) was 99.01 ± 1.34, the Mouse body weight ([2]; female, 500 mg/kg, day 15) was 100.03 ± 0.95 and the Mouse body weight ([2]; female, 500 mg/kg, day 20) was 100.52 ± 0.74. The Mouse body weight ([2]; female, 500 mg/kg, day 25) was 99.81 ± 1.72, the Mouse body weight ([2]; female, 500 mg/kg, day 30) was 99.79 ± 2.55 and the Mouse body weight ([2]; female, 1000 mg/kg, day 1) was 100.00±0.00. For the same molecule, the Mouse body weight ([2]; female, 1000 mg/kg, day 5) was 101.96 ± 0.55, the Mouse body weight ([2]; female, 1000 mg/kg, day 10) was 101.80 ± 2.02 and the Mouse body weight ([2]; female, 1000 mg/kg, day 15) was 99.77 ± 2.60. The Mouse body weight ([2]; female, 1000 mg/kg, day 20) was 101.04 ± 2.13, the Mouse body weight ([2]; female, 1000 mg/kg, day 25) was 99.06 ± 3.56 and the Mouse body weight ([2]; female, 1000 mg/kg, day 30) was 100.67 ± 0.91. For the same molecule, the Mouse body weight ([2]; male, 500 mg/kg, day 1) was 100.00 ± 0.00, the Mouse body weight ([2]; male, 500 mg/kg, day 5) was 100.31 ± 0.89 and the Mouse body weight ([2]; male, 500 mg/kg, day 10) was 101.51 ± 4.00. It also gave a Mouse body weight ([2]; male, 500 mg/kg, day 15) of 99.27 ± 2.11, a Mouse body weight ([2]; male, 500 mg/kg, day 20) of 101.29 ± 0.40 and a Mouse body weight ([2]; male, 500 mg/kg, day 25) of 98.93 ± 0.60. The Mouse body weight ([2]; male, 500 mg/kg, day 30) was 100.10 ± 1.08, the Mouse body weight ([2]; male, 1000 mg/kg, day 1) was 100.00 ± 0.00 and the Mouse body weight ([2]; male, 1000 mg/kg, day 5) was 101.48 ± 1.30. It also gave a Mouse body weight ([2]; male, 1000 mg/kg, day 10) of 101.22 ± 0.84, a Mouse body weight ([2]; male, 1000 mg/kg, day 15) of 100.47 ± 1.28 and a Mouse body weight ([2]; male, 1000 mg/kg, day 20) of 100.15 ± 2.76. The Mouse body weight ([2]; male, 1000 mg/kg, day 25) was 98.35 ± 1.14 and the Mouse body weight ([2]; male, 1000 mg/kg, day 30) was 100.71 ± 0.53.

— patent publication US20260315434A1, “USE OF GUAIACOL SESQUITERPENE LACTONE DERIVATIVES” (NANJING UNIVERSITY OF CHINESE MEDICINE, priority 2023, published 2026)
